Measured values from patent US20090324581A1, “HETEROARYLAMIDE LOWER CARBOXYLIC ACID DERIVATIVE” (Daiichi Sankyo company Limited, priority 2006, published 2009).
Counter-ions that a name gives are not always drawn.

Assays:
[1] = system: lymphocytes in peripheral blood; test: Decrease in peripheral blood lymphocyte count of mice after administration of each compound; format: in vivo; details: four hours after administration, peripheral blood lymphocyte count vs solvent group; for T/C(%) (3 mg/kg): 3 mg/kg peroral; for T/C(%) (10 mg/kg): 10 mg/kg peroral
Experimental: 2. In Vivo Evaluation of Test Substances (Decrease in Peripheral Blood Lymphocyte Count of Mice after Administration of Each Compound):
There has already been reported that lymphocytes in peripheral blood of mice decrease after administration of an S1P receptor agonist [SCIENCE, 296, 346-349 (2002)]. According to the evaluation method disclosed in the document, test compounds were evaluated.
Four hours after peroral administration, blood (0.5 mL) was collected from each mouse through the posterior vena cava under anesthesia with ether by use of EDTA as an anti-coagulant. The number of lymphocytes in peripheral blood was determined by means of a general hematological tester ADVIA 120 (Bayer Medical). The pharmacological action of each test drug was evaluated as T/C (%) ratio, which is a ratio of average peripheral blood lymphocyte count of a test drug-administered group to that of the solvent-administered group (control group).
(§1) T/C(%)=(average peripheral blood lymphocyte count of a test drug-administered group)/(average peripheral blood lymphocyte count of the solvent-administered group)×100

human S1P1 (EDG-1) = biological target: T1, human S1P1 (EDG-1) (Homo sapiens, UniProt P21453); test: Intracellular calcium flux assay (agonist activity against S1P1 (EDG-1) receptor); format: cell-based; details: CHO cells expressing Gqi5 and human S1P1 (EDG-1), intracellular calcium change
T1 construct: expressed in transfected cells; host or cells: CHO-K1 cells stably expressing HA-Gqi5
T1 sequence (P21453 whole entry): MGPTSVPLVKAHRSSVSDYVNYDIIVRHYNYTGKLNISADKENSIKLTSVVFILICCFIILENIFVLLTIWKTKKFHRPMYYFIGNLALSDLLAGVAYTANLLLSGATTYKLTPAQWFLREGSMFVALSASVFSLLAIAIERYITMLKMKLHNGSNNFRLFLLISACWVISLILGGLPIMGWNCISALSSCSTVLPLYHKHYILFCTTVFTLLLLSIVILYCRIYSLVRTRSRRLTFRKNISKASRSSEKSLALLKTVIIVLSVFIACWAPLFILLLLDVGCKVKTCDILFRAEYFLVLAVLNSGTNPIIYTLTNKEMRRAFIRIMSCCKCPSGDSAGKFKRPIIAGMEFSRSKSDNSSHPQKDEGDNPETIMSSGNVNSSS
Excerpt: The HA-Gqi5 expression plasmid, which had been produced in (2) above, was integrated into CHO-K1 cells by use of a Fugene 6 reagent (product of Roche Diagnostics K.K.), and cells of interest were selected by use of hygromycin. A CHO cell expressing HA-Gqi5 was selected through western blotting employing an anti-HA antibody, and the selected cells were cloned twice.
By use of a human S1P1 (EDG-1) cDNA clone (open biosystems, cDNA collection #4071217) as a template, human S1P1 (EDG-1) DNA was produced through PCR. This PCR product was integrated into pUC118. By means of a site-directed mutagenesis kit (product of STRATAGENE), a plasmid into which DNA having a target sequence (The Journal of Biological Chemistry Vol. 265, No. 16, 9308-9313, 1990) had been integrated was produced.
A human S1P1 (EDG-1) gene (The Journal of Biological Chemistry Vol. 265, No. 16, 9308-9313, 1990) integrated into pUC118 was digested by use of restriction enzymes, and the cut fragment was purified. The fragment was ligated with an expression plasmid pcDNA3.1/mycHisA (product of Invitrogen). The ligation mixture was integrated into E. Coli DH5α, and a positive clone was selected, whereby a S1P1 (EDG-1) expression plasmid was produced.
A S1P1 (EDG-1) expression plasmid was integrated into the CHO cells expressing HA-Gqi5, which had been produced in (3) above, by use of a Fugene 6 reagent (product of Roche Diagnostics K.K.). […] The selected cells were cloned twice.
CHO cells expressing Gqi5 protein, to which human S1P1 (EDG-1) had been introduced and which had been produced in (6) above, were seeded on a 96-well black plate with a transparent bottom surface (2.5×10^4 cell/well) and cultured overnight. The culture was washed once with a serum-free medium, and an assay buffer (calcium assay kit, product of Molecular Devices, 100 μL) containing 2.5 mM probenicid and 0.25% fatty acid-free BSA was added to the washed cells. The mixture was allowed to react at 37° C. for one hour under […] CO2. Separately, each test compound was diluted so as to attain a concentration five times the final test concentration. The diluted liquid (25 μL) was added to each well, and change in intracellular calcium concentration was measured by means of a FLEXstation II (product of Molecular Devices). The change was determined as the difference between the minimum intracellular calcium level and the peak (maximum) value thereof. A sigmoid curve was obtained from the measurements, and an EC50 value was calculated from the curve so as to evaluate agonist activity against an S1P1 (EDG-1) receptor.

[2] = system: lymphocytes in peripheral blood; test: Decrease in peripheral blood lymphocyte count of rats after administration of each compound; format: in vivo; details: rats (female Lewis), four hours after administration, peripheral blood lymphocyte count vs solvent group; for T/C(%) (3 mg/kg): 3 mg/kg peroral; for T/C(%) (10 mg/kg): 10 mg/kg peroral
Experimental: 3. In Vivo Evaluation of Test Substances (Decrease in Peripheral Blood Lymphocyte Count of Rats after Administration of Each Compound):
The effect of administration of an S1P receptor agonist on decrease in peripheral blood lymphocyte counts of rats (female Lewis) was evaluated.
Four hours after peroral administration, blood (0.5 mL) was collected from each rat through the cervical vein under anesthesia with ether by use of EDTA as an anti-coagulant. The number of lymphocytes in peripheral blood and blood cell fractions were determined by means of a general hematological tester ADVIA 120 (Bayer Medical). The action of each test drug on reducing peripheral blood lymphocyte count was evaluated as T/C (%) ratio at the time of blood collection, which is a ratio of average peripheral blood lymphocyte count of a test drug-administered group to that of the solvent-administered group (control group).
as §1

[3] = clinically tested in transplant and multiple sclerosis; cited from earlier work
[4] = system: production of cytokines such as IL-2; details: in vitro; cited from earlier work
blood lymphocytes = details: phosphorylated in the living body, acts as S1P receptor agonist; cited from earlier work

Structure (SMILES) | T/C(%) (3 mg/kg) [1] | T/C(%) (10 mg/kg) [1] | EC50 (human S1P1 (EDG-1); Table 2) [nM] | T/C(%) (3 mg/kg) [2] | T/C(%) (10 mg/kg) [2] | EC50 (human S1P1 (EDG-1); Table 4) [nM] | other results
N[C@H](CC(=O)O)C(=O)N1CCc2cc(OCc3cc(-c4ccccc4)c(C(F)(F)F)s3)ccc21 [Example 10, (R)-3-Amino-4-oxo-4-[5-[(4-phenyl-5-trifluoromethyl-2-thienyl)methoxy]indolin-1-yl]butyric acid] | 21.6 | 16.3 | 1.3 | – | – | – | –
N[C@H](CC(=O)O)C(=O)N1CCc2cc(OCc3ccc(-c4ccccc4)c(C(F)(F)F)c3)ccc21 [Example 14, (R)-3-Amino-4-oxo-4-[5-[(2-trifluoromethyl-4-biphenyl)methoxy]indolin-1-yl]butyric acid] | 17.0 | 11.1 | 4.4 | – | – | – | –
O=C(O)CCNCC(=O)N1CCc2cc(OCc3cc(-c4ccccc4)c(C(F)(F)F)s3)ccc21 [Example 29, 3-[N-[2-Oxo-2-[5-[(4-phenyl-5-trifluoromethyl-2-thienyl)methoxy]indolin-1-yl]ethyl]amino]propionic acid] | 15.5 | 13.9 | 2.4 | – | – | – | –
CN(CCC(=O)O)CC(=O)N1CCc2cc(OCc3cc(-c4ccccc4)c(C(F)(F)F)s3)ccc21 [Example 30, 3-[N-Methyl-N-[2-oxo-2-[5-[(4-phenyl-5-trifluoromethyl-2-thienyl)methoxy]indolin-1-yl]ethyl]amino]propionic acid] | 21.7 | 11.1 | 2.9 | – | – | – | –
O=C(O)CCNCC(=O)N1CCc2cc(OCc3ccc(-c4ccccc4)c(C(F)(F)F)c3)ccc21 [Example 31, 3-[N-[2-Oxo-2-[5-[(2-trifluoromethyl-4-biphenyl)methoxy]indolin-1-yl]ethyl]amino]propionic acid] | 30.8 | 19.8 | 6.3 | – | – | – | –
CN[C@H](CC(=O)O)C(=O)N1CCc2cc(OCc3ccc(C4CCCCC4)cc3C(F)(F)F)ccc21 [Example 43, 4-[5-[[4-(Cyclohexyl)-2-(trifluoromethyl)phenyl]methoxy]indolin-1-yl]-(3R)-(methylamino)-4-oxobutyric acid] | – | – | – | 34.9 | 25.7 | 8.7 | –
CC(C)c1ccc(COc2ccc3c(c2)CCN3C(=O)CNCCC(=O)O)cc1OC(F)(F)F [Example 97, 3-[N-[2-[5-(4-Isopropyl-3-trifluoromethoxybenzyloxy)indolin-1-yl]-2-oxoethyl]amino]propionic acid hydrochloride] | – | – | – | 22.2 | 17.9 | 4.7 | –
O=C(O)[C@@H]1CCCN(CC(=O)N2CCc3cc(OCc4cc(-c5ccccc5)c(C(F)(F)F)s4)ccc32)C1 [Example 119, 1-[2-Oxo-2-[5-[(4-phenyl-5-trifluoromethyl-2-thienyl)methoxy]indolin-1-yl]ethyl]piperidine-(3R)-carboxylic acid] | – | – | – | 28.7 | 20.7 | 6.2 | –
CN[C@H](CC(=O)O)C(=O)N1CCc2c1ccc(OCc1ccc(C3CCCC3)c(C(F)(F)F)c1)c2C [Example 129, 4-[5-[(4-Cyclopentyl-3-trifluoromethylphenyl)methoxy]-4-methylindolin-1-yl]-(3R)—(N-methylamino)-4-oxobutyric acid] | – | – | – | 18.2 | 17.7 | 4.5 | –
CCCCCCCCc1ccc(CCC(N)(CO)CO)cc1.Cl [FTY720, 2-amino-2-[2-(4-octylphenyl)ethyl]-1,3-propanediol hydrochloride] | – | – | – | – | – | – | adverse side effect [3]: bradycardia is reported as an adverse side effect; inhibitory action on production of cytokines such as IL-2 [4]: no inhibitory action; reduction in blood lymphocytes (blood lymphocytes): induce reduction in blood lymphocytes
